ChEMBL document CHEMBL1151687, “Search for alpha-helical propensity in the receptor-bound conformation of glucagon-like peptide-1” (Bioorg Med Chem, 2008)
Positions of bridges follow the written chain, without caps; N, C: chain ends. Residues, ends and D or L forms follow the SMILES beside them.

Key:
[1] = biological target: T1, Glucagon-like peptide 1 receptor (Homo sapiens, UniProt P43220); assay: Displacement of [125I]exendin(9-39) from human GLP1R expressed in HEK293 cells; format: cell-based
[2] = biological target: T1, Glucagon-like peptide 1 receptor; assay: Activation of human GLP1R expressed in HEK293 cells assessed as effect on cAMP responsive element promoter driven luciferase expression; format: functional, cell-based

T1 sequence (P43220 whole entry): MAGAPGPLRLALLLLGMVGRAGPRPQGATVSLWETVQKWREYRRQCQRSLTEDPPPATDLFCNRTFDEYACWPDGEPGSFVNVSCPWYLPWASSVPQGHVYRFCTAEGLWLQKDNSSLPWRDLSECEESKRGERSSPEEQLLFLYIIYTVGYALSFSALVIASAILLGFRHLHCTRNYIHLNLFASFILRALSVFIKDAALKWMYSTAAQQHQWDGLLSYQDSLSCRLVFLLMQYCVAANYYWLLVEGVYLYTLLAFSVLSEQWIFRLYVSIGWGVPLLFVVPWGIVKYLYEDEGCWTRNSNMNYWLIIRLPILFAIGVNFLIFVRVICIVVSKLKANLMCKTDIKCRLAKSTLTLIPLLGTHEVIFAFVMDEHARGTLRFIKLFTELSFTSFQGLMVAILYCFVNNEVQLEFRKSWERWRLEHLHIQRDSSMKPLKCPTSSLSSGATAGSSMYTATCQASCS

| SMILES | IC50 [1] [nM] | EC50 [2] [nM] | IC50 ([1]; hek293) [nM] | EC50 ([2]; hek293) [nM] |
| --- | --- | --- | --- | --- |
| CC[C@H](C)[C@H](NC(=O)[C@H](CCC(=O)O)NC(=O)[C@H](CCCCN)NC(=O)[C@H](C)NC(=O)[C@H](CCC(N)=O)NC(=O)[C@H](CCC(N)=O)NC(=O)CNC(=O)[C@H](CCC(=O)O)NC(=O)[C@H](CCCCNC(C)=O)NC(=O)[C@H](Cc1ccc(O)cc1)NC(=O)[C@H](CO)NC(=O)[C@H](CO)NC(=O)[C@@H](NC(=O)[C@H](CC(=O)O)NC(=O)[C@H](CO)NC(=O)[C@@H](NC(=O)[C@H](Cc1ccccc1)NC(=O)[C@@H](NC(=O)CNC(=O)[C@H](CCC(=O)O)NC(=O)[C@H](C)NC(=O)[C@@H](N)Cc1cnc[nH]1)[C@@H](C)O)[C@@H](C)O)C(C)C)C(=O)N[C@@H](Cc1ccccc1)C(=O)N[C@@H](C)C(=O)N[C@@H](Cc1c[nH]c2ccccc12)C(=O)N[C@@H](CC(C)C)C(=O)N[C@H](C(=O)N[C@@H](CCCCN)C(=O)NCC(=O)N[C@@H](CCCNC(=N)N)C(N)=O)C(C)C (H-HAEGTFTSDVSSYK(Ac)EGQQAKEIFAWLVKGR-NH2) | 1200 | 0.1 |  |  |
| CC[C@H](C)[C@H](NC(=O)[C@H](Cc1ccccc1)NC(=O)[C@H](CCC(=O)O)NC(=O)[C@H](CCCCN)NC(=O)[C@H](C)NC(=O)[C@H](C)NC(=O)[C@H](CCC(N)=O)NC(=O)CNC(=O)[C@H](CCC(=O)O)NC(=O)[C@H](CC(C)C)NC(=O)[C@H](Cc1ccc(O)cc1)NC(=O)[C@@H]1CCC(=O)NCCCC[C@H](NC(=O)[C@@H](NC(=O)[C@H](Cc2ccccc2)NC(=O)[C@@H](NC(=O)CNC(=O)[C@H](CCC(=O)O)NC(=O)[C@H](C)NC(=O)[C@@H](N)Cc2cnc[nH]2)[C@@H](C)O)[C@@H](C)O)C(=O)N[C@@H](CC(=O)O)C(=O)N[C@@H](C(C)C)C(=O)N[C@@H](CO)C(=O)N1)C(=O)N[C@@H](C)C(=O)N[C@@H](Cc1c[nH]c2ccccc12)C(=O)N[C@@H](CC(C)C)C(=O)N[C@H](C(=O)N[C@@H](CCCCN)C(=O)NCC(=O)N[C@@H](CCCNC(=N)N)C(N)=O)C(C)C (H-HAEGTFTKDVSEYLEGQAAKEFIAWLVKGR-NH2; lactam 8-12) |  |  | 210 | 8.4 |
| CC[C@H](C)[C@H](NC(=O)[C@H](CCC(=O)O)NC(=O)[C@H](CCCCN)NC(=O)[C@H](C)NC(=O)[C@H](C)NC(=O)[C@H](CCC(N)=O)NC(=O)[C@H](CCC(N)=O)NC(=O)[C@H](CCC(=O)O)NC(=O)[C@H](CC(C)C)NC(=O)[C@H](Cc1ccc(O)cc1)NC(=O)[C@H](CCCCNC(C)=O)NC(=O)[C@H](CO)NC(=O)[C@@H](NC(=O)[C@H](CC(=O)O)NC(=O)[C@H](CO)NC(=O)[C@@H](NC(=O)[C@H](Cc1ccccc1)NC(=O)[C@@H](NC(=O)CNC(=O)[C@H](CCC(=O)O)NC(=O)[C@H](C)NC(=O)[C@@H](N)Cc1cnc[nH]1)[C@@H](C)O)[C@@H](C)O)C(C)C)C(=O)N[C@@H](Cc1ccccc1)C(=O)N[C@@H](C)C(=O)N[C@@H](Cc1c[nH]c2ccccc12)C(=O)N[C@@H](CC(C)C)C(=O)N[C@H](C(=O)N[C@@H](CCCCN)C(=O)NCC(=O)N[C@@H](CCCNC(=N)N)C(N)=O)C(C)C (H-HAEGTFTSDVSK(Ac)YLEQQAAKEIFAWLVKGR-NH2) | 17 | 0.0038 |  |  |
| CC[C@H](C)[C@H](NC(=O)[C@H](CCC(=O)O)NC(=O)[C@H](CCCCN)NC(=O)[C@H](C)NC(=O)[C@H](C)NC(=O)[C@H](CCC(N)=O)NC(=O)CNC(=O)[C@H](CCC(=O)O)NC(=O)[C@H](CCC(N)=O)NC(=O)[C@H](Cc1ccc(O)cc1)NC(=O)[C@H](CO)NC(=O)[C@H](CO)NC(=O)[C@H](CCCCNC(C)=O)NC(=O)[C@H](CC(=O)O)NC(=O)[C@H](CO)NC(=O)[C@@H](NC(=O)[C@H](Cc1ccccc1)NC(=O)[C@@H](NC(=O)CNC(=O)[C@H](CCC(=O)O)NC(=O)[C@H](C)NC(=O)[C@@H](N)Cc1cnc[nH]1)[C@@H](C)O)[C@@H](C)O)C(=O)N[C@@H](Cc1ccccc1)C(=O)N[C@@H](C)C(=O)N[C@@H](Cc1c[nH]c2ccccc12)C(=O)N[C@@H](CC(C)C)C(=O)N[C@H](C(=O)N[C@@H](CCCCN)C(=O)NCC(=O)N[C@@H](CCCN=C(N)N)C(N)=O)C(C)C | 6.6 | 0.012 |  |  |
